Experimental data: patent publication US20250376464A1 (Trawsfynydd Therapeutics, Inc., priority 2022, published 2025)

Target: SARS-CoV2-Mpro (Severe acute respiratory syndrome coronavirus 2 (2019-nCoV) (SARS-CoV-2), UniProt P0DTD1)
Assay: Primary assay: SARS-CoV2-Mpro enzymatic activity inhibition
Type: biochemical
Details: enzyme preincubated with compound for 20 min; slope of linear portion of signal
Method: Example A. Primary Assay Used to Determine Potency of SARS-CoV2-Mpro Enzymatic Activity Inhibition
• (1) Deliver 2× Enzyme • (2) Deliver buffer into No Enzyme wells • (3) Deliver compounds in 100% DMSO by using Acoustic technology (Echo550; nanoliter range) • (4) Incubate for 20 min • (5) Deliver 2× Substrate to initiate the reaction • (6) Spin & shake, start measuring in EnVision at rt; 5 min interval for 25 (2 hours) • (7) Analyze data by taking slope (signal/time) of linear portion of measurement • (8) Slope is calculated by using Excel, and curve fits are performed using Prism software.
The % inhibition was then used to calculate the IC50 values. The IC50 values are shown in Table A, wherein “A” corresponds to IC50<10.0 nm, “B” corresponds to 10.0 nm≤IC50<50.0 nm, “C” corresponds to 50.0 nm≤IC50<100.0 nm, “D” corresponds to 100.0 nm≤IC50<500.0 nm, and “E” corresponds to 500.0 nm≤IC50<1000.0 nm, and “F” corresponds to 1000.0 nm≤IC50.

CC(C)(C)[C@H](NC(=O)C(F)(F)F)C(=O)N1C[C@H]2[C@H]([C@H]1C(=O)N[C@H](C#N)Cn1nnc3ccccc31)C2(C)C [Compound 308, (1S,2S,5S)-N-[(1S)-2-(benzotriazol-1-yl)-1-cyano-ethyl]-3-[(2S)-3,3-dimethyl-2-[(2,2,2-trifluoroacetyl)amino]butanoyl]-6,6-dimethyl-3-azabicyclo[3.1.0]hexane-2-carboxamide]
IC50: ≥ 1000 nM

CN(C(=O)[C@@H]1C2[C@H](CN1C(=O)[C@@H](NC(=O)C(F)(F)F)C(C)(C)C)C2(C)C)[C@H](C#N)CC1C(=O)Nc2ccccc21 (stereo in doubt) [Compound 231, (1S,2S,5S)-N-[(1S)-1-cyano-2-(2-oxoindolin-3-yl)ethyl]-3-[(2S)-3,3-dimethyl-2-[(2,2,2-trifluoroacetyl)amino]butanoyl]-N,6,6-trimethyl-3-azabicyclo[3.1.0]hexane-2-carboxamide]
IC50: 50 to 100 nM

CC(C)(C)[C@H](NS(C)(=O)=O)C(=O)N1C[C@H]2C([C@H]1C(=O)N[C@H](C#N)C[C@@H]1CCNC1=O)C2(C)C (stereo in doubt) [Compound 201, (1R,2S,5S)—N—((S)-1-Cyano-2-((S)-2-oxopyrrolidin-3-yl)ethyl)-3-((S)-3,3-dimethyl-2-(methylsulfonamido)butanoyl)-6,6-dimethyl-3-azabicyclo[3.1.0]hexane-2-carboxamide]
IC50: 10 to 50 nM

CC(C)(C)[C@H](NC(=O)C(F)(F)F)C(=O)N1C[C@H]2C([C@H]1C(=O)N[C@H](C#N)C[C@]1(C)C(=O)Nc3ccccc31)C2(C)C (stereo in doubt) [Compound 239, (1S,2S,5S)-N-[1-cyano-2-(3-methyl-2-oxo-indolin-3-yl)ethyl]-3-[(2S)-3,3-dimethyl-2-[(2,2,2-trifluoroacetyl)amino]butanoyl]-6,6-dimethyl-3-azabicyclo[3.1.0]hexane-2-carboxamide]
IC50: ≥ 1000 nM

CC(C)(C)[C@H](NC(=O)C(F)(F)F)C(=O)N1C[C@H]2C([C@H]1C(=O)N[C@H](C#N)Cn1c(=O)[nH]c3ccccc31)C2(C)C (stereo in doubt) [Compound 301, (1R,2S,5S)—N—((S)-1-cyano-2-(2-oxo-2,3-dihydro-1H-benzo[d]imidazol-1-yl)ethyl)-3-((S)-3,3-dimethyl-2-(2,2,2-trifluoroacetamido)butanoyl)-6,6-dimethyl-3-azabicyclo[3.1.0]hexane-2-carboxamide]
IC50: ≥ 1000 nM

CC(C)(C)[C@H](NC(=O)C(F)(F)F)C(=O)N1C[C@H]2C([C@H]1C(=O)N[C@H](C#N)CC1C(=O)Nc3ccc(Br)cc31)C2(C)C (stereo in doubt) [Compound 232, (1S,2S,5S)-N-[(1S)-2-(5-bromo-2-oxo-indolin-3-yl)-1-cyano-ethyl]-3-[(2S)-3,3-dimethyl-2-[(2,2,2-trifluoroacetyl)amino]butanoyl]-6,6-dimethyl-3-azabicyclo[3.1.0]hexane-2-carboxamide]
IC50: 10 to 50 nM

COc1ccc2c(c1)C(C[C@@H](C#N)NC(=O)[C@@H]1[C@H]3[C@H](CN1C(=O)[C@@H](NC(=O)C(F)(F)F)C(C)(C)C)C3(C)C)C(=O)N2 (stereo partly drawn) [Compound 221, (1S,2S,5S)-N-[(1S)-1-cyano-2-(5-methoxy-2-oxo-indolin-3-yl)ethyl]-3-[(2S)-3,3-dimethyl-2-[(2,2,2-trifluoroacetyl)amino]butanoyl]-6,6-dimethyl-3-azabicyclo[3.1.0]hexane-2-carboxamide]
IC50: < 10 nM

CC(C)(C)[C@H](NC(=O)C(F)(F)F)C(=O)N1C[C@H]2[C@H]([C@H]1C(=O)N[C@H](C#N)CC1C(=O)Nc3ccc(Cl)cc31)C2(C)C (stereo partly drawn) [Compound 218, (1S,2S,5S)-N-[(1S)-2-(5-chloro-2-oxo-indolin-3-yl)-1-cyano-ethyl]-3-[(2S)-3,3-dimethyl-2-[(2,2,2-trifluoroacetyl)amino]butanoyl]-6,6-dimethyl-3-azabicyclo[3.1.0]hexane-2-carboxamide]
IC50: 10 to 50 nM

Cc1ccc2c(c1)C(CC(C#N)NC(=O)C1C3[C@H](CN1C(=O)[C@@H](NC(=O)C(F)(F)F)C(C)(C)C)C3(C)C)C(=O)N2 (stereo in doubt) [Compound 230, (1S,2S,5S)-N-[1-cyano-2-(5-methyl-2-oxo-indolin-3-yl)ethyl]-3-[(2S)-3,3-dimethyl-2-[(2,2,2-trifluoroacetyl)amino]butanoyl]-6,6-dimethyl-3-azabicyclo[3.1.0]hexane-2-carboxamide]
IC50: 10 to 50 nM

Cc1ccc2c(c1)C(F)(CC(C#N)NC(=O)C1C3[C@H](CN1C(=O)[C@@H](NC(=O)C(F)(F)F)C(C)(C)C)C3(C)C)C(=O)N2 (stereo in doubt) [Compound 229, (1S,2S,5S)-N-[1-cyano-2-(3-fluoro-5-methyl-2-oxo-indolin-3-yl)ethyl]-3-[(2S)-3,3-dimethyl-2-[(2,2,2-trifluoroacetyl)amino]butanoyl]-6,6-dimethyl-3-azabicyclo[3.1.0]hexane-2-carboxamide]
IC50: 10 to 50 nM

CC(C)(C)[C@H](NC(=O)C(F)(F)F)C(=O)N1C[C@H]2[C@@H]([C@H]1C(=O)NC(C#N)CC1C(=O)Nc3ncccc31)C2(C)C (some centres unmarked) [Compound 249]
IC50: 500 to 1000 nM

CC(C)(C)[C@H](NS(C)(=O)=O)C(=O)N1C[C@H]2C([C@H]1C(=O)N[C@H](C#N)CC1C(=O)Nc3ccccc31)C2(C)C (stereo in doubt) [Compound 237, (1S,2S,5S)-N-[(1S)-1-cyano-2-(2-oxoindolin-3-yl)ethyl]-3-[(2S)-2-(methanesulfonamido)-3,3-dimethyl-butanoyl]-6,6-dimethyl-3-azabicyclo[3.1.0]hexane-2-carboxamide]
IC50: < 10 nM

CC(C)(C)[C@H](NC(=O)C(F)(F)F)C(=O)N1C[C@H]2[C@@H]([C@H]1C(=O)NC(C#N)CCC1C(=O)Nc3ccccc31)C2(C)C (stereo partly drawn) [Compound 250, (1R,2S,5S)—N-[1-Cyano-3-(2-oxoindolin-3-yl)propyl]-6,6-dimethyl-3-[(2S)-3,3-dimethyl-2-[(2,2,2-trifluoroacetyl)amino]butanoyl]-3-azabicyclo[3.1.0]hexane-2-carboxamide]
IC50: 500 to 1000 nM

CCCN(C(=O)[C@@H]1[C@@H]2[C@H](CN1C(=O)[C@@H](NC(=O)C(F)(F)F)C(C)(C)C)C2(C)C)[C@H](C#N)C[C@@H]1C(=O)Nc2ccccc21 [Compound 248, (1R,2S,5S)-N-[(1S)-1-cyano-2-(2-oxoindolin-3-yl)ethyl]-3-[(2S)-3,3-dimethyl-2-[(2,2,2-trifluoroacetyl)amino]butanoyl]-6,6-dimethyl-N-propyl-3-azabicyclo[3.1.0]hexane-2-carboxamide]
IC50: ≥ 1000 nM

CC(C)CCN(C(=O)[C@@H]1[C@@H]2[C@H](CN1C(=O)[C@@H](NC(=O)C(F)(F)F)C(C)(C)C)C2(C)C)[C@H](C#N)C[C@@H]1C(=O)Nc2ccccc21 [Compound 247, (1R,2S,5S)-N-[(1S)-1-cyano-2-(2-oxoindolin-3-yl)ethyl]-3-[(2S)-3,3-dimethyl-2-[(2,2,2-trifluoroacetyl)amino]butanoyl]-N-isopentyl-6,6-dimethyl-3-azabicyclo[3.1.0]hexane-2-carboxamide]
IC50: ≥ 1000 nM

CC(C)(C)[C@H](NC(=O)C(F)(F)F)C(=O)N1C[C@H]2C([C@H]1C(=O)NC(C#N)CC1(F)C(=O)Nc3ccccc31)C2(C)C (stereo in doubt) [Compound 227, (1S,2S,5S)-N-[1-cyano-2-(3-fluoro-2-oxo-indolin-3-yl)ethyl]-3-[(2S)-3,3-dimethyl-2-[(2,2,2-trifluoroacetyl)amino]butanoyl]-6,6-dimethyl-3-azabicyclo[3.1.0]hexane-2-carboxamide]
IC50: 10 to 50 nM

CC(C)(C)[C@H](NC(=O)C(F)(F)F)C(=O)N1C[C@H]2C([C@H]1C(=O)N[C@H](C#N)CC1C(=O)Nc3ccccc31)C2(C)C (stereo in doubt) [Compound 217, (1R,2S,5S)—N-((1S)-1-Cyano-2-(2-oxoindolin-3-yl)ethyl)-3-((S)-3,3-dimethyl-2-(2,2,2-trifluoroacetamido)butanoyl)-6,6-dimethyl-3-azabicyclo[3.1.0]hexane-2-carboxamide]
IC50: < 10 nM

CC(C)(C)[C@H](NC(=O)C(F)(F)F)C(=O)N1CCC2(CC2)CC1C(=O)N[C@H](C#N)C[C@@H]1CCNC1=O (mixture of isomers) [Compound 206, N—((S)-1-Cyano-2-((S)-2-oxopyrrolidin-3-yl)ethyl)-6-((S)-3,3-dimethyl-2-(2,2,2-trifluoroacetamido)butanoyl)-6-azaspiro[2.5]octane-5-carboxamide]
IC50: 10 to 50 nM

CCOC(=O)N[C@@H](CC(C)C)C(=O)N1C[C@H]2C([C@H]1C(=O)N[C@H](C#N)CC1C(=O)Nc3ccccc31)C2(C)C (stereo in doubt) [Compound 246, ethyl N-[(1S)-1-[(1S,2S,5S)-2-[[(1S)-1-cyano-2-(2-oxoindolin-3-yl)ethyl]carbamoyl]-6,6-dimethyl-3-azabicyclo[3.1.0]hexane-3-carbonyl]-3-methyl-butyl]carbamate]
IC50: 10 to 50 nM

Cc1cccc2c1C(C[C@@H](C#N)NC(=O)[C@@H]1C3[C@H](CN1C(=O)[C@@H](NC(=O)C(F)(F)F)C(C)(C)C)C3(C)C)C(=O)N2 (stereo in doubt) [Compound 234, (1S,2S,5S)-N-[(1S)-1-cyano-2-(4-methyl-2-oxo-indolin-3-yl)ethyl]-3-[(2S)-3,3-dimethyl-2-[(2,2,2-trifluoroacetyl)amino]butanoyl]-6,6-dimethyl-3-azabicyclo[3.1.0]hexane-2-carboxamide]
IC50: 500 to 1000 nM
